Data reported in ChEMBL document CHEMBL3045699, “Three-dimensional quantitative structureactivity relationship approach for the prediction of the antimycobacterial activity of 4-oxo-dihydroquinoline-3-carboxylic acid derivatives” (2008).
In brackets after ≈: the same amount, converted by molar mass.

System: Mycobacterium tuberculosis
Experiment: Antimycobacterial activity against Mycobacterium tuberculosis
Assay type: functional
Details: for MIC: Mycobacterium tuberculosis

Row | Structure (SMILES) | log(1/C) | MIC
1 | CC1CN(c2ccc3c(=O)c(C(=O)O)cn(-c4c(F)cccc4F)c3c2)CCN1 (configuration not stated) | 2.922 | 1.2 µM (≈ 0.478 µg/mL)
2 | CC1CN(c2ccc3c(=O)c(C(=O)O)cn(C(C)(C)C)c3c2)CCN1 (configuration not stated) | 3.78 | 0.166 µM (≈ 0.057 µg/mL)
3 | CC1CN(c2ccc3c(=O)c(C(=O)O)cn(C(C)(C)C)c3c2)CC(C)N1 (configuration not stated) | 3.796 | 0.16 µM (≈ 0.0572 µg/mL)
4 | CCN1CCN(c2ccc3c(=O)c(C(=O)O)cn(C(C)(C)C)c3c2)CC1 | 3.461 | 0.346 µM (≈ 0.124 µg/mL)
5 | CC(C)(C)n1cc(C(=O)O)c(=O)c2ccc(N3CCC(N)C3)cc21 (configuration not stated) | 3.427 | 0.374 µM (≈ 0.123 µg/mL)
6 | CNCC1CCN(c2ccc3c(=O)c(C(=O)O)cn(C(C)(C)C)c3c2)C1 (configuration not stated) | 3.177 | 0.666 µM (≈ 0.238 µg/mL)
7 | CC(C)n1cc(C(=O)O)c(=O)c2ccc(N3CCNCC3)cc21 | 1.921 | 12 µM (≈ 3.78 µg/mL)
8 | CC1CN(c2ccc3c(=O)c(C(=O)O)cn(C(C)C)c3c2)CCN1 (configuration not stated) | 2.24 | 5.76 µM (≈ 1.9 µg/mL)
9 | CC1CN(c2ccc3c(=O)c(C(=O)O)cn(C(C)C)c3c2)CC(C)N1 (configuration not stated) | 2.257 | 5.53 µM (≈ 1.9 µg/mL)
10 | CCN1CCN(c2ccc3c(=O)c(C(=O)O)cn(C(C)C)c3c2)CC1 | 1.956 | 11.1 µM (≈ 3.8 µg/mL)
11 | CC(C)n1cc(C(=O)O)c(=O)c2ccc(N3CCC(N)C3)cc21 (configuration not stated) | 2.222 | 6 µM (≈ 1.89 µg/mL)
12 | CNCC1CCN(c2ccc3c(=O)c(C(=O)O)cn(C(C)C)c3c2)C1 (configuration not stated) | 1.655 | 22.1 µM (≈ 7.6 µg/mL)
13 | O=C(O)c1cn(C2CCC2)c2cc(N3CCNCC3)ccc2c1=O | 2.237 | 5.79 µM (≈ 1.9 µg/mL)
14 | CC1CN(c2ccc3c(=O)c(C(=O)O)cn(C4CCC4)c3c2)CCN1 (configuration not stated) | 2.556 | 2.78 µM (≈ 0.95 µg/mL)
15 | CC1CN(c2ccc3c(=O)c(C(=O)O)cn(C4CCC4)c3c2)CC(C)N1 (configuration not stated) | 2.873 | 1.34 µM (≈ 0.476 µg/mL)
16 | CCN1CCN(c2ccc3c(=O)c(C(=O)O)cn(C4CCC4)c3c2)CC1 | 2.271 | 5.36 µM (≈ 1.9 µg/mL)
17 | NC1CCN(c2ccc3c(=O)c(C(=O)O)cn(C4CCC4)c3c2)C1 (configuration not stated) | 2.556 | 2.78 µM (≈ 0.911 µg/mL)
18 | CNCC1CCN(c2ccc3c(=O)c(C(=O)O)cn(C4CCC4)c3c2)C1 (configuration not stated) | 1.97 | 10.7 µM (≈ 3.81 µg/mL)
19 | O=C(O)c1cn(-c2c(F)cccc2F)c2cc(N3CCNCC3)ccc2c1=O | 2.907 | 1.24 µM (≈ 0.478 µg/mL)
20 | CN1CCN(c2ccc3c(=O)c(C(=O)O)cn(-c4c(F)cccc4F)c3c2)CC1 | 2.922 | 1.2 µM (≈ 0.478 µg/mL)
21 | CC1CN(c2ccc3c(=O)c(C(=O)O)cn(-c4c(F)cccc4F)c3c2)CC(C)N1 (configuration not stated) | 2.936 | 1.16 µM (≈ 0.479 µg/mL)
22 | CCC1CN(c2ccc3c(=O)c(C(=O)O)cn(-c4c(F)cccc4F)c3c2)CCN1 (configuration not stated) | 2.635 | 2.32 µM (≈ 0.958 µg/mL)
23 | CCN1CCN(c2ccc3c(=O)c(C(=O)O)cn(-c4c(F)cccc4F)c3c2)CC1 | 2.635 | 2.32 µM (≈ 0.958 µg/mL)
24 | CC(C)N1CCN(c2ccc3c(=O)c(C(=O)O)cn(-c4c(F)cccc4F)c3c2)CC1 | 2.649 | 2.25 µM (≈ 0.96 µg/mL)
25 | CC(C)CN1CCN(c2ccc3c(=O)c(C(=O)O)cn(-c4c(F)cccc4F)c3c2)CC1 | 2.06 | 8.71 µM (≈ 3.84 µg/mL)
26 | CCCCN1CCN(c2ccc3c(=O)c(C(=O)O)cn(-c4c(F)cccc4F)c3c2)CC1 | 2.361 | 4.35 µM (≈ 1.92 µg/mL)

Row | Structure (SMILES) | log(1/C) | MIC
27 | NC1CCN(c2ccc3c(=O)c(C(=O)O)cn(-c4c(F)cccc4F)c3c2)C1 (configuration not stated) | 3.492 | 0.322 µM (≈ 0.124 µg/mL)
28 | CNCC1CCN(c2ccc3c(=O)c(C(=O)O)cn(-c4c(F)cccc4F)c3c2)C1 (configuration not stated) | 3.237 | 0.579 µM (≈ 0.239 µg/mL)
29 | CCNCC1CCN(c2ccc3c(=O)c(C(=O)O)cn(-c4c(F)cccc4F)c3c2)C1 (configuration not stated) | 2.95 | 1.12 µM (≈ 0.48 µg/mL)
30 | CCCn1cc(C(=O)O)c(=O)c2ccc(N3CCNCC3)cc21 | 2.203 | 6.26 µM (≈ 1.98 µg/mL)
31 | CCCn1cc(C(=O)O)c(=O)c2ccc(N3CCNC(C)C3)cc21 (configuration not stated) | 2.222 | 6 µM (≈ 1.98 µg/mL)
32 | CCCn1cc(C(=O)O)c(=O)c2ccc(N3CC(C)NC(C)C3)cc21 (configuration not stated) | 2.541 | 2.88 µM (≈ 0.989 µg/mL)
33 | CCCn1cc(C(=O)O)c(=O)c2ccc(N3CCN(CC)CC3)cc21 | 2.842 | 1.44 µM (≈ 0.494 µg/mL)
34 | CCCn1cc(C(=O)O)c(=O)c2ccc(N3CCC(N)C3)cc21 (configuration not stated) | 1.902 | 12.5 µM (≈ 3.95 µg/mL)
35 | CCCn1cc(C(=O)O)c(=O)c2ccc(N3CCC(CNC)C3)cc21 (configuration not stated) | 1.638 | 23 µM (≈ 7.91 µg/mL)
36 | CC(C)(C)n1cc(C(=O)O)c(=O)c2ccc(N3CCNCC3)cc21 | 3.427 | 0.374 µM (≈ 0.123 µg/mL)
37 | CCC1CN(c2ccc3c(=O)c(C(=O)O)cn(C4CC4)c3c2)CCN1 (configuration not stated) | 3.158 | 0.696 µM (≈ 0.238 µg/mL)
38 | CCN1CCN(c2ccc3c(=O)c(C(=O)O)cn(C4CC4)c3c2)CC1 | 3.442 | 0.362 µM (≈ 0.124 µg/mL)
39 | CC(C)N1CCN(c2ccc3c(=O)c(C(=O)O)cn(C4CC4)c3c2)CC1 | 3.174 | 0.669 µM (≈ 0.238 µg/mL)
40 | CC(C)CN1CCN(c2ccc3c(=O)c(C(=O)O)cn(C4CC4)c3c2)CC1 | 3.19 | 0.645 µM (≈ 0.238 µg/mL)
41 | CCCCN1CCN(c2ccc3c(=O)c(C(=O)O)cn(C4CC4)c3c2)CC1 | 2.889 | 1.29 µM (≈ 0.477 µg/mL)
42 | CNCC1CCN(c2ccc3c(=O)c(C(=O)O)cn(C4CC4)c3c2)C1 (configuration not stated) | 2.857 | 1.39 µM (≈ 0.475 µg/mL)
43 | CCNCC1CCN(c2ccc3c(=O)c(C(=O)O)cn(C4CC4)c3c2)C1 (configuration not stated) | 2.873 | 1.34 µM (≈ 0.476 µg/mL)
44 | CC(C)NCC1CCN(c2ccc3c(=O)c(C(=O)O)cn(C4CC4)c3c2)C1 (configuration not stated) | 2.889 | 1.29 µM (≈ 0.477 µg/mL)
45 | CN(C)CC1CCN(c2ccc3c(=O)c(C(=O)O)cn(C4CC4)c3c2)C1 (configuration not stated) | 2.873 | 1.34 µM (≈ 0.476 µg/mL)
46 | CC1(CN)CCN(c2ccc3c(=O)c(C(=O)O)cn(C4CC4)c3c2)C1 (configuration not stated) | 3.777 | 0.167 µM (≈ 0.057 µg/mL)
47 | CN1CCN(c2ccc3c(=O)c(C(=O)O)cn(C4CC4)c3c2)CC1 | 3.14 | 0.724 µM (≈ 0.237 µg/mL)
48 | CC1CN(c2ccc3c(=O)c(C(=O)O)cn(C4CC4)c3c2)CCN1 (configuration not stated) | 3.14 | 0.724 µM (≈ 0.237 µg/mL)
49 | CC1CN(c2ccc3c(=O)c(C(=O)O)cn(C4CC4)c3c2)CC(C)N1 (configuration not stated) | 3.442 | 0.362 µM (≈ 0.124 µg/mL)
50 | O=C(O)c1cn(C2CC2)c2cc(N3CCNCC3)ccc2c1=O | 3.122 | 0.754 µM (≈ 0.236 µg/mL)
51 | NC1CCN(c2ccc3c(=O)c(C(=O)O)cn(C4CC4)c3c2)C1 (configuration not stated) | 3.122 | 0.754 µM (≈ 0.236 µg/mL)
